# According to PubChem BioAssay (NCI):
#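 Five compound concentrations were applied to cells in 96-well plates for 48 hours; endpoints were derived by simple linear interpolation of the resulting dose-response curve. Abbreviation: GI50, concentration required for 50% inhibition of growth. TGI marks complete inhibition of growth.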
# Legend:
# Test in all cases: DTP human tumour cell line panel, 48 h
# [1] = test system: 786-0 renal
# [2] = test system: OVCAR-3 ovarian
# [3] = test system: SK-MEL-2 melanoma
# [4] = test system: HOP-18 NSCLC
# [5] = test system: SNB-78 CNS
# [6] = test system: OVCAR-5 ovarian
# [7] = test system: SK-OV-3 ovarian
# [8] = test system: MALME-3M melanoma
# [9] = test system: OVCAR-8 ovarian
# [10] = test system: KM20L2 colon
# [11] = test system: SN12C renal
# [12] = test system: SNB-19 CNS
# [13] = test system: M19-MEL melanoma
# [14] = test system: SK-MEL-5 melanoma
# [15] = test system: HOP-62 NSCLC
# [16] = test system: HL-60(TB) leukemia
# [17] = test system: KM12 colon
# [18] = test system: NCI-H522 lung
# [19] = test system: MOLT-4 leukemia
# [20] = test system: ACHN renal
# [21] = test system: SF-295 CNS
# [22] = test system: RPMI-8226 leukemia
# [23] = test system: NCI-H23 lung
# [24] = test system: SK-MEL-28 melanoma
# [25] = test system: HT29 colon
# [26] = test system: UACC-257 melanoma
# [27] = test system: UACC-62 melanoma
# [28] = test system: EKVX NSCLC
# [29] = test system: CCRF-CEM leukemia
# [30] = test system: SF-539 CNS
# [31] = test system: DMS 114 small cell lung
# [32] = test system: RXF 393 renal
# [33] = test system: XF 498 CNS
# [34] = test system: SNB-75 CNS
# [35] = test system: A549 NSCLC
# [36] = test system: HOP-92 NSCLC
# [37] = test system: SW-620 colon
# [38] = test system: COLO 205 colon
# [39] = test system: HCT-116 colon
# [40] = test system: U251 CNS
# [41] = test system: UO-31 renal
# [42] = test system: IGROV1 ovarian
# [43] = test system: DMS 273 small cell lung
# [44] = test system: LXFL 529 NSCLC
# [45] = test system: SF-268 CNS
# [46] = test system: NCI-H460 lung
# [47] = test system: K-562 leukemia
# [48] = test system: M14 melanoma
# [49] = test system: OVCAR-4 ovarian
# [50] = test system: HCC-2998 colon
# [51] = test system: DLD-1 colon
# [52] = test system: NCI-H226 lung
# [53] = test system: CAKI-1 renal
# [54] = test system: TK-10 renal
# [55] = test system: LOX IMVI melanoma
# [56] = test system: A498 renal
# [57] = test system: HCT-15 colon
structure (smiles),measurement,setting,value
CCC[CH2][Sn]([CH2]CCC)([S]C1=NCCS1)[S]C1=NCCS1,GI50,[1],220 nM
same,TGI,[1],663 nM
same,GI50,[2],563 nM
same,TGI,[2],1870 nM
same,GI50,[3],194 nM
same,TGI,[3],566 nM
same,GI50,[4],1120 nM
same,TGI,[4],2330 nM
same,GI50,[5],124 nM
same,TGI,[5],946 nM
same,GI50,[6],2290 nM
same,TGI,[6],3780 nM
same,GI50,[7],1900 nM
same,TGI,[7],3310 nM
same,GI50,[8],157 nM
same,TGI,[8],555 nM
same,GI50,[9],397 nM
same,TGI,[9],1600 nM
same,GI50,[10],1350 nM
same,TGI,[10],2880 nM
same,GI50,[11],502 nM
same,TGI,[11],1820 nM
same,GI50,[12],300 nM
same,TGI,[12],1120 nM
same,GI50,[13],268 nM
same,TGI,[13],1450 nM
same,GI50,[14],452 nM
same,TGI,[14],1760 nM
same,GI50,[15],2100 nM
same,TGI,[15],3550 nM
same,GI50,[16],298 nM
same,TGI,[16],881 nM
same,GI50,[17],1020 nM
same,TGI,[17],2280 nM
same,GI50,[18],13.3 nM
same,TGI,[18],56.2 nM
same,GI50,[19],157 nM
same,TGI,[19],732 nM
same,GI50,[20],368 nM
same,TGI,[20],1310 nM
same,GI50,[21],730 nM
same,TGI,[21],2020 nM
same,GI50,[22],101 nM
same,TGI,[22],461 nM
same,GI50,[23],170 nM
same,TGI,[23],670 nM
same,GI50,[24],146 nM
same,TGI,[24],353 nM
same,GI50,[25],1070 nM
same,TGI,[25],2580 nM
same,GI50,[26],323 nM
same,TGI,[26],1440 nM
same,GI50,[27],177 nM
same,TGI,[27],814 nM
same,GI50,[28],1340 nM
same,TGI,[28],2710 nM
same,GI50,[29],23.1 nM
same,TGI,[29],226 nM
same,GI50,[30],164 nM
same,TGI,[30],449 nM
same,GI50,[31],117 nM
same,TGI,[31],435 nM
same,GI50,[32],84.6 nM
same,TGI,[32],301 nM
same,GI50,[33],159 nM
same,TGI,[33],678 nM
same,GI50,[34],85.7 nM
same,TGI,[34],1390 nM
same,GI50,[35],1850 nM
same,TGI,[35],3550 nM
same,GI50,[36],227 nM
same,TGI,[36],529 nM
same,GI50,[37],145 nM
same,TGI,[37],441 nM
same,GI50,[38],331 nM
same,TGI,[38],1500 nM
same,GI50,[39],615 nM
same,TGI,[39],1910 nM
same,GI50,[40],567 nM
same,TGI,[40],1860 nM
same,GI50,[41],1130 nM
same,TGI,[41],2510 nM
same,GI50,[42],1300 nM
same,TGI,[42],2740 nM
same,GI50,[43],705 nM
same,TGI,[43],2270 nM
same,GI50,[44],42.3 nM
same,TGI,[44],169 nM
same,GI50,[45],254 nM
same,TGI,[45],908 nM
same,GI50,[46],1520 nM
same,TGI,[46],3260 nM
same,GI50,[47],65.5 nM
same,TGI,[47],1050 nM
same,GI50,[48],315 nM
same,TGI,[48],1240 nM
same,GI50,[49],964 nM
same,TGI,[49],2240 nM
same,GI50,[50],654 nM
same,TGI,[50],1940 nM
same,GI50,[51],275 nM
same,TGI,[51],1310 nM
same,GI50,[52],741 nM
same,TGI,[52],2120 nM
same,GI50,[53],92.8 nM
same,TGI,[53],510 nM
same,GI50,[54],390 nM
same,TGI,[54],1110 nM
same,GI50,[55],186 nM
same,TGI,[55],555 nM
same,GI50,[56],507 nM
same,TGI,[56],1310 nM
same,GI50,[57],338 nM
same,TGI,[57],1740 nM
